Experimental data reported in patent US8137919B2 (Montefiore Medical Center, priority 2008, dated 2012).

Assays:
Type in all cases: cell-based
SW403 cells = test: Apoptosis, PI staining and FACS; conditions: 5 microMolar, 72 hours treatment
Experimental: FIG. 4. […] Cell cycle distribution and apoptosis was assessed by PI staining and FACS analysis. Values shown are mean±SEM, n=3, #P<0.05.

[1] = system: cetuximab sensitive and resistant cell lines; test: Growth response to EGF, MTT assay; conditions: 0.5 or 5 ng/ml EGF
Experimental: Cell growth was assayed by MTT assay. Values shown are mean±SEM from a representative experiment, #p<0.05. Experiments were repeated 3 separate times.
(§1) For each cell line, one plate was harvested for determination of t=0 absorbance values. Viable cells were determined 72 h post-treatment using the MTT assay by measurement of absorbance at 570 nm. The relative rate of cell growth for each cell line was factored into the analysis by subtracting the absorbance at time zero from both the control and treatment groups. All the experiments were replicated a minimum of 3 times. For determination of sensitivity to EGF, cells were serum starved for 4 h then treated with 0, 0.5 or 5 ng/ml EGF for 24-72 h.

[2] = system: GEO, LIM1215, and SW403 (cetuximab sensitive cell lines); test: Proliferative response to EGF, S-phase; conditions: 24 h post EGF treatment (0.5 ng/ml), serum-free
Experimental: as §1
(§2) To test this, the proliferative response of the 3 most cetuximab-sensitive and 3 most cetuximab-resistant cell lines to exogenous EGF-treatment was examined under serum-free conditions (FIG. 6). […] These findings indicate that a subset of colon tumors exist that are dependent upon ligand activation of EGFR for their growth, and it is these cell lines that are growth inhibited by blockade of ligand binding to the EGFR.

[3] = system: LIM2405, HCT15, and HCT116 (cetuximab resistant cell lines); test: Proliferative response to EGF, S-phase; conditions: 24 h post EGF treatment (0.5 ng/ml), serum-free
Experimental: as §1, §2

| Molecule | apoptosis (SW403 cells) | cell growth (MTT) [1] | change in S-phase [2] | change in S-phase [3] |
| --- | --- | --- | --- | --- |
| O=c1[nH]cc(F)c(=O)[nH]1 [5FU, 5-fluoruracil] | approximately 50% |  |  |  |
| EGF: EGFR activator, EGFR ligand |  | preferentially increased growth of the cetuximab sensitive cell lines | significant increase | not |
